According to the supplement of paper PMC10307832:

Assays:
Assay in all cases: relative viability (nuclei count vs DMSO), 5 days (fraction); higher = more cells survive
NCI-H1623 = system: NCI-H1623
Procedure, shortened: (§1)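 Relative viability divides the nuclei count in treated wells by that in vehicle wells. Lung cancer cell lines were seeded in 1536-well plates, dosed by pin tool the next day, and fixed and stained after 5 days in one step with final 0.05% Triton X-100, 1% formaldehyde and 1 ug/ml Hoechst. Dosing was a single drug or a fixed anchor-drug dose plus five library-drug doses (not always all listed) in √10 steps, and values are medians of duplicate plates imaged at 4×.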

NCI-H322M = system: NCI-H322M
Procedure, shortened: as §1

NCI-H1563 = system: NCI-H1563
Procedure, shortened: as §1

HCC-78 = system: HCC-78
Procedure, shortened: as §1

NCI-H2087 = system: NCI-H2087
Procedure, shortened: as §1

NCI-H1299 = system: NCI-H1299
Procedure, shortened: as §1

IA-LM = system: IA-LM
Procedure, shortened: as §1

HCC-44 = system: HCC-44
Procedure, shortened: as §1

EBC-1 = system: EBC-1
Procedure, shortened: as §1

NCI-H1648 = system: NCI-H1648
Procedure, shortened: as §1

Calu-6 = system: Calu-6
Procedure, shortened: as §1

A549 = system: A549
Procedure, shortened: as §1

NCI-H1703 = system: NCI-H1703
Procedure, shortened: as §1

Structure (SMILES): Cc1cn(-c2cc(NC(=O)c3ccc(C)c(Nc4nccc(-c5cccnc5)n4)c3)cc(C(F)(F)F)c2)cn1 [Nilotinib] + Cc1nc(Nc2ncc(C(=O)Nc3c(C)cccc3Cl)s2)cc(N2CCN(CCO)CC2)n1 [Dasatinib] (partner 0.075 µM)
- relative viability (NCI-H1623; first compound 0.001 µM): 0.597
- relative viability (NCI-H1623; first compound 0.003162 µM): 0.531
- relative viability (NCI-H1623; first compound 0.01 µM): 0.601
- relative viability (NCI-H1623; first compound 0.03162 µM): 0.508
- relative viability (NCI-H1623; first compound 0.1 µM): 0.408
- relative viability (NCI-H322M; first compound 0.001 µM): 0.295
- relative viability (NCI-H322M; first compound 0.003162 µM): 0.279
- relative viability (NCI-H322M; first compound 0.03162 µM): 0.282
- relative viability (NCI-H322M; first compound 0.1 µM): 0.234
- relative viability (NCI-H1563; first compound 0.001 µM): 0.447
- relative viability (NCI-H1563; first compound 0.003162 µM): 0.447
- relative viability (NCI-H1563; first compound 0.01 µM): 0.442
- relative viability (NCI-H1563; first compound 0.03162 µM): 0.492
- relative viability (NCI-H1563; first compound 0.1 µM): 0.329
- relative viability (HCC-78; first compound 0.001 µM): 0.442
- relative viability (HCC-78; first compound 0.003162 µM): 0.357
- relative viability (HCC-78; first compound 0.01 µM): 0.404
- relative viability (HCC-78; first compound 0.03162 µM): 0.252
- relative viability (HCC-78; first compound 0.1 µM): 0.268
- relative viability (NCI-H2087; first compound 0.001 µM): 0.821
- relative viability (NCI-H2087; first compound 0.003162 µM): 1.33
- relative viability (NCI-H2087; first compound 0.01 µM): 1.13
- relative viability (NCI-H2087; first compound 0.03162 µM): 0.357
- relative viability (NCI-H2087; first compound 0.1 µM): 0.203

Structure (SMILES): Cc1cn(-c2cc(NC(=O)c3ccc(C)c(Nc4nccc(-c5cccnc5)n4)c3)cc(C(F)(F)F)c2)cn1 [Nilotinib] + O=C(c1cc(Cc2n[nH]c(=O)c3ccccc23)ccc1F)N1CCN(C(=O)C2CC2)CC1 [Olaparib] (partner 8 µM)
- relative viability (NCI-H1299; first compound 0.001 µM): 0.886
- relative viability (NCI-H1299; first compound 0.003162 µM): 1.01
- relative viability (NCI-H1299; first compound 0.01 µM): 0.985
- relative viability (NCI-H1299; first compound 0.03162 µM): 0.948
- relative viability (NCI-H1299; first compound 0.1 µM): 0.664
- relative viability (IA-LM; first compound 0.001 µM): 0.659
- relative viability (IA-LM; first compound 0.003162 µM): 0.864
- relative viability (IA-LM; first compound 0.01 µM): 0.758
- relative viability (IA-LM; first compound 0.03162 µM): 0.664
- relative viability (IA-LM; first compound 0.1 µM): 0.777
- relative viability (HCC-44; first compound 0.001 µM): 0.895
- relative viability (HCC-44; first compound 0.003162 µM): 0.97
- relative viability (HCC-44; first compound 0.01 µM): 0.976
- relative viability (HCC-44; first compound 0.1 µM): 0.983
- relative viability (EBC-1; first compound 0.001 µM): 0.67
- relative viability (EBC-1; first compound 0.003162 µM): 0.804
- relative viability (EBC-1; first compound 0.01 µM): 0.755
- relative viability (EBC-1; first compound 0.03162 µM): 0.661
- relative viability (EBC-1; first compound 0.1 µM): 0.631
- relative viability (NCI-H322M; first compound 0.001 µM): 0.737
- relative viability (NCI-H322M; first compound 0.003162 µM): 0.712
- relative viability (NCI-H322M; first compound 0.01 µM): 0.678
- relative viability (NCI-H322M; first compound 0.03162 µM): 0.556
- relative viability (NCI-H322M; first compound 0.1 µM): 0.818
- relative viability (HCC-78; first compound 0.001 µM): 0.748
- relative viability (HCC-78; first compound 0.003162 µM): 0.602
- relative viability (HCC-78; first compound 0.01 µM): 0.877
- relative viability (HCC-78; first compound 0.03162 µM): 0.768
- relative viability (HCC-78; first compound 0.1 µM): 0.752
- relative viability (NCI-H1648; first compound 0.001 µM): 0.577
- relative viability (NCI-H1648; first compound 0.003162 µM): 0.909
- relative viability (NCI-H1648; first compound 0.01 µM): 0.903
- relative viability (NCI-H1648; first compound 0.03162 µM): 0.621
- relative viability (NCI-H1648; first compound 0.1 µM): 0.893
- relative viability (Calu-6; first compound 0.001 µM): 0.525
- relative viability (Calu-6; first compound 0.003162 µM): 0.693
- relative viability (Calu-6; first compound 0.01 µM): 0.583
- relative viability (Calu-6; first compound 0.03162 µM): 0.409
- relative viability (Calu-6; first compound 0.1 µM): 0.494
- relative viability (A549; first compound 0.001 µM): 0.249
- relative viability (A549; first compound 0.003162 µM): 0.377
- relative viability (A549; first compound 0.01 µM): 0.334
- relative viability (A549; first compound 0.03162 µM): 0.241
- relative viability (A549; first compound 0.1 µM): 0.117
- relative viability (NCI-H2087; first compound 0.001 µM): 0.529
- relative viability (NCI-H2087; first compound 0.003162 µM): 0.672
- relative viability (NCI-H2087; first compound 0.01 µM): 0.592
- relative viability (NCI-H2087; first compound 0.03162 µM): 0.552
- relative viability (NCI-H2087; first compound 0.1 µM): 0.514
- relative viability (NCI-H1703; first compound 0.001 µM): 0.302
- relative viability (NCI-H1703; first compound 0.003162 µM): 0.201
- relative viability (NCI-H1703; first compound 0.01 µM): 0.234
- relative viability (NCI-H1703; first compound 0.03162 µM): 0.174
- relative viability (NCI-H1703; first compound 0.1 µM): 0.212
